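96-well plates; 48 h exposure; 5 concentrations. Endpoints by linear interpolation between flanking doses. Not reached: highest tested concentration assigned. GI50 marks 50% less growth. The concentration for full growth arrest is given as TGI.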 Where a SMILES comes first, the peptide text is derived from it. [ ]: non-standard residue; d: D form. The star is where a group is joined. Cbz = O=C(OCc1ccccc1)*; Aib = CC(C)(N)C(=O)O; OBn = c1ccc(CO*)cc1
How the values were obtained:
Assay in all cases: NCI tumour cell line growth inhibition, 48 h
[1] = tested on: PC-3 prostate
[2] = tested on: MOLT-4 leukemia
[3] = tested on: HT29 colon
[4] = tested on: SNB-75 CNS
[5] = tested on: DU-145 prostate
[6] = tested on: OVCAR-4 ovarian
[7] = tested on: MDA-N
[8] = tested on: HCC-2998 colon
[9] = tested on: HCT-116 colon
[10] = tested on: NCI-H460 lung

Row | Compound | TGI [1] [µM] | TGI [2] [µM] | TGI [3] [µM] | TGI [4] [µM] | TGI [5] [µM] | TGI [6] [µM] | TGI [7] [µM] | TGI [8] [µM] | TGI [9] [µM] | TGI [10] [µM] | GI50 [1] [µM] | GI50 [2] [µM] | GI50 [3] [µM] | GI50 [4] [µM] | GI50 [5] [µM] | GI50 [6] [µM] | GI50 [8] [µM]
1 | O=C(CC(=O)Nc1ccccc1)NNC(Sc1ccccc1)c1cc(N=Nc2ccc(Br)cc2)ccc1O (centres undefined) | > 10 | > 10 | > 10 | > 10 | > 10 | > 10 | > 10 | > 10 | 2.81 | > 10 |  |  |  |  |  |  | 
2 | O=C1c2cccc3cccc(c23)C(=O)N1CCCNCCCCNCCCNCCCN1C(=O)c2cccc3cccc(c23)C1=O | 1.76 |  | 1.15 | 1.46 | 1.53 | 1.76 | 2.11 | 1.86 | 1.57 | 1.42 |  |  |  |  |  |  | 
3 | CC(C)Oc1cccc(N2C(=NCc3c[nH]c4ccccc34)Nc3ccncc3S2(=O)=O)c1 | 83.4 | 96.7 | > 100 | 67.7 | > 100 | > 100 | > 100 | 97.9 | > 100 | 77.6 |  |  |  |  |  |  | 
4 | O=C(O)c1cccc(S(=O)(=O)NN2C(=O)CSC2c2ccc(Cl)cc2Cl)c1 (centres undefined) | > 100 | > 100 | > 100 | > 100 | > 100 |  | > 100 | > 100 | 83.1 | > 100 |  |  |  |  |  |  | 
5 | CC(C(=O)COCc1ccccc1)P1(=O)OC(C)(C)CN1C(C)(C)C (centres undefined) |  | > 100 | > 100 | > 100 | > 100 | > 100 | > 100 | > 100 | > 100 | > 100 |  |  |  |  |  |  | 
6 | C=CCn1c(=O)ccn(/C(=C/C(=O)OCC)C(=O)OCC)c1=O | 27.9 | 10.3 | 27.9 | 30.4 | 50.2 | > 51.4 | 31.3 | 31.8 | > 41.5 | 34 |  |  |  |  |  |  | 
7 | O=C(NN1C(=O)CS(=O)(=O)C1c1ccc(C(F)(F)F)cc1)c1ccncc1 (centres undefined) |  | > 100 | > 100 | > 100 |  | > 100 |  | > 100 | > 100 | > 100 |  |  |  |  |  |  | 
8 | [N-]=[N+]=CC(=O)OC(CCl)CCl | > 100 | > 100 | > 100 |  | > 100 | > 100 | > 100 | > 100 | > 100 | > 100 |  |  |  |  |  |  | 
9 | COc1cccc2c1OC(c1cccc3ccccc13)C([N+](=O)[O-])=C2 (centres undefined) | 2.37 | 5.71 | 4.5 | 2.65 | 8.9 | 13 | 10.3 |  | 2.45 | 3.77 |  |  |  |  |  |  | 
10 | Cc1cc(OP2(=O)NCc3ncccc3O2)ccc1Cl (centres undefined) | > 100 | > 100 |  | > 100 | > 100 | > 100 | > 100 | > 100 | > 100 | > 100 |  |  |  |  |  |  | 
11 | Cc1ccnc(NC(=S)Nc2ccc([N+](=O)[O-])cc2)c1 | > 100 | > 100 | > 100 | > 100 | > 100 | > 100 |  | > 100 | > 100 | > 100 |  |  |  |  |  |  | 
12 | COc1ccc(/C=N/NC(=O)c2ccc(O)c(CN(C)C)c2)cc1 | > 100 | > 100 | > 100 |  | > 100 | > 100 | > 100 | > 100 | > 100 | > 100 |  |  |  |  |  |  | 
13 | COc1cc2c(cc1OCCCCCN1CCN(c3ncnc4ccccc34)CC1)N=CC1CCCN1C2=O (centres undefined) | 0.154 | 0.0706 | 10.8 | 0.0823 | 0.97 | 2.28 |  | 0.0349 |  |  | 0.0218 | 0.0194 | 0.0275 | 0.0168 | 0.0271 | 0.0498 | 0.0178
14 | COc1cc(C2c3cc4c(cc3[C@@H](Nc3ccccc3)C3COC(=O)[C@H]23)OCO4)cc(OC)c1O (some centres undefined) |  | 0.13 | 3.64 | 7.97 |  | 34.6 |  | 3.35 | 6.27 | 2.86 |  |  |  |  |  |  | 
15 | CC(C)C1=CC23CCC4C(C)(C(=O)O)CCCC4(C)C2CC1C1C(=O)N(CCCCCCN2C(=O)C4C5CC6C7(C)CCCC(C)(C(=O)O)C7CCC6(C=C5C(C)C)C4C2=O)C(=O)C13 (centres undefined) | 19 | 30.1 | 13.8 |  |  | 34.3 | 28.4 | 27.1 | 20.9 |  |  |  |  |  |  |  | 
16 | CCOC(=O)c1c2cccccc-2nc1Nc1cccc2c(C)ccnc12 | > 10 | > 10 | > 10 |  | > 10 | > 10 | > 10 | > 10 | > 10 | > 10 |  |  |  |  |  |  | 
17 | CSc1csc(-c2ccc(-c3ccc(-c4cc(SC)cs4)s3)s2)c1 | > 100 | > 100 | > 100 | > 100 |  | > 100 | > 100 | > 100 | > 100 | > 100 |  |  |  |  |  |  | 
18 | O=C1NC(O)CCN1C1OC(CO)C(O)C1O (centres undefined) |  | > 250 | > 250 | > 250 |  | > 250 |  | > 250 | > 141 | > 250 |  |  |  |  |  |  | 
19 | C=C(C)CNCCN | > 100 | > 100 | > 100 |  | > 100 | > 100 | > 100 |  | > 100 | > 100 |  |  |  |  |  |  | 
20 | Cn1ncc2c(NCc3ccccc3)ncnc21 |  | > 100 | > 100 | > 100 | > 100 | > 100 | > 100 | > 100 | > 100 | > 100 |  |  |  |  |  |  | 
21 | CC(NC(=O)C(C)(C)NC(=O)C(CC(=O)OCc1ccccc1)NC(=O)OCc1ccccc1)C(N)=O (centres undefined) (Cbz-Asp(OBn)-[Aib]-Ala-NH2; configuration not given here) | > 100 | > 100 | > 100 |  | > 100 | > 100 | > 100 | > 100 | > 100 | > 100 |  |  |  |  |  |  | 
22 | c1ccc(C(C(=Nc2ccc(Cc3ccc(N=C(C(c4ccccc4)c4ccccc4)N4CC4)cc3)cc2)N2CC2)c2ccccc2)cc1 | 22.6 |  | 15.9 |  | 28 |  |  | 23.6 | > 100 | 13.4 |  |  |  |  |  |  | 

— PubChem BioAssay (NCI)
